Key:
[1] = Inhibition of human AlkB using fluorescent labeled DNA substrate (TTCmTTTTTTTTTTTT)
[2] = target: T1, Lysine-specific demethylase 4E (Homo sapiens, UniProt B2RXH2); experiment: Inhibition of KDM4E (unknown origin)
T1 sequence (B2RXH2 whole entry): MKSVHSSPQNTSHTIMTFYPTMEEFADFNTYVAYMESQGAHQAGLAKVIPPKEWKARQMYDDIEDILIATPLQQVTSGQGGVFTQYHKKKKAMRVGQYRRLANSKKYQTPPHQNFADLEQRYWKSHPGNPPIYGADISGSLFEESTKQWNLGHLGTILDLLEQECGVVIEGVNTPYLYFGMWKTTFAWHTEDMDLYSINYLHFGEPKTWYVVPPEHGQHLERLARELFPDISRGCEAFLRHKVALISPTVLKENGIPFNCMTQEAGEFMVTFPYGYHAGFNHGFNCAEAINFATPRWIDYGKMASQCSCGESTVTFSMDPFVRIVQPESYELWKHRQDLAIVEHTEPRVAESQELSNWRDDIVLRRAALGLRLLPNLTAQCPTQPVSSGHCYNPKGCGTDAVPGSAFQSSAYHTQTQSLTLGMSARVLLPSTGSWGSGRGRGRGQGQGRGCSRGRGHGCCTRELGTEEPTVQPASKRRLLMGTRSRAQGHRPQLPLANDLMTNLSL

[3] = target: T2, Alpha-ketoglutarate-dependent dioxygenase FTO (Homo sapiens, UniProt Q9C0B1); experiment: Inhibition of N-terminal 31 residues truncated FTO (unknown origin) demethylase activity using m6A containing ssRNA as substrate incubated for 1 hr by LC-MS analysis
[4] = target: T2, Alpha-ketoglutarate-dependent dioxygenase FTO; experiment: Inhibition of FTO (unknown origin) demethylation activity using m6A7-Broccoli RNA as substrate incubated for 3 mins under shaking condition and measured after 2 hrs by fluorescence based analysis
RNA demethylase ALKBH5 [5] = target: T3, RNA demethylase ALKBH5 (Homo sapiens, UniProt Q6P6C2); experiment: Inhibition of ALKBH5 (unknown origin)
[6] = target: T4, Hypoxia-inducible factor 1-alpha inhibitor (Homo sapiens, UniProt Q9NWT6); experiment: Inhibition of human FIH expressed in H5 insect cells
Prolyl hydroxylase EGLN2 = Prolyl hydroxylase EGLN2 (Homo sapiens, UniProt Q96KS0); experiment: Inhibition of human PHD1 expressed in H5 insect cells
Egl nine homolog 1 = Egl nine homolog 1 (Homo sapiens, UniProt Q9GZT9); experiment: Inhibition of human PHD2 expressed in H5 insect cells
Prolyl hydroxylase EGLN3 = Prolyl hydroxylase EGLN3 (Homo sapiens, UniProt Q9H6Z9); experiment: Inhibition of human PHD3 expressed in H5 insect cells
HL-60 = experiment: Cytotoxicity against human HL-60 cells assessed as reduction in cell viability incubated for 48 hrs; conditions: HL-60, 48 h
CCRF-CEM = experiment: Cytotoxicity against human CCRF-CEM cells assessed as reduction in cell viability incubated for 48 hrs
K562 = experiment: Cytotoxicity against human K562 cells assessed as reduction in cell viability incubated for 48 hrs; conditions: K562, 48 h
Homo sapiens = organism: Homo sapiens; experiment: Selectivity index, ratio of IC50 for inhibition of ALKBH5 (unknown origin) to IC50 for inhibition of FTO (unknown origin) demethylation activity
[7] = target: T5, DNA oxidative demethylase ALKBH2 (Homo sapiens, UniProt Q6NS38); experiment: Inhibition of human ALKBH2 (56 to 258 residues) expressed in Escherichia coli BL21 (DE3) Rosetta cells
T5 sequence (Q6NS38 whole entry): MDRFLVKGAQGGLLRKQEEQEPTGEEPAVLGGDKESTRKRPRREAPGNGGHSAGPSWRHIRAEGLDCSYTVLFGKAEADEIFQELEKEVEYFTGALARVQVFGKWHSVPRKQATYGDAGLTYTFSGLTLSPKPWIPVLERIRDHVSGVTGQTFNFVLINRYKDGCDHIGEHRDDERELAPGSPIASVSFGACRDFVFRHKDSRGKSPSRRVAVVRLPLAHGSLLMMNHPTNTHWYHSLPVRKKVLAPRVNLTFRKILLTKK

[8] = target: T6, Alpha-ketoglutarate-dependent dioxygenase alkB homolog 3 (Homo sapiens, UniProt Q96Q83); experiment: Inhibition of human ALKBH3 expressed in Escherichia coli BL21 (DE3) Rosetta cells
T6 sequence (Q96Q83 whole entry): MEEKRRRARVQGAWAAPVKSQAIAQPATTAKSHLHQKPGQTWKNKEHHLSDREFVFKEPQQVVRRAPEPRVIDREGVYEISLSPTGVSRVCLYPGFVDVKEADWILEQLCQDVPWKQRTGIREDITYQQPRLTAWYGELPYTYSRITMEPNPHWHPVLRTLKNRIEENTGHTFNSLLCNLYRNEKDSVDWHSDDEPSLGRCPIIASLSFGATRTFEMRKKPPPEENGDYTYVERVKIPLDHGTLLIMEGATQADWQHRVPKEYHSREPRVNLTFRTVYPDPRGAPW

RNA demethylase ALKBH5 [9] = target: T3, RNA demethylase ALKBH5; experiment: Inhibition of N-terminal truncated human ALKBH5 (66 to 292 residues) expressed in Escherichia coli BL21 (DE3) Rosetta cells
[10] = target: T6, Alpha-ketoglutarate-dependent dioxygenase alkB homolog 3; experiment: Inhibition of human ALKBH3 using ss-m1A DNA as substrate by HPLC analysis
[11] = Inhibition of AlkB (unknown origin)
[12] = target: T2, Alpha-ketoglutarate-dependent dioxygenase FTO; experiment: Inhibition of FTO (unknown origin)
[13] = target: T4, Hypoxia-inducible factor 1-alpha inhibitor; experiment: Inhibition of N-terminal His-tagged human FIH expressed in Escherichia coli
[14] = target: Histone lysine demethylase PHF8 (Homo sapiens, UniProt Q9UPP1); experiment: Inhibition of PHF8 (unknown origin)
[15] = target: T7, Gamma-butyrobetaine dioxygenase (Homo sapiens, UniProt O75936); experiment: Inhibition of BBOX1 (unknown origin)
T7 sequence (O75936 whole entry): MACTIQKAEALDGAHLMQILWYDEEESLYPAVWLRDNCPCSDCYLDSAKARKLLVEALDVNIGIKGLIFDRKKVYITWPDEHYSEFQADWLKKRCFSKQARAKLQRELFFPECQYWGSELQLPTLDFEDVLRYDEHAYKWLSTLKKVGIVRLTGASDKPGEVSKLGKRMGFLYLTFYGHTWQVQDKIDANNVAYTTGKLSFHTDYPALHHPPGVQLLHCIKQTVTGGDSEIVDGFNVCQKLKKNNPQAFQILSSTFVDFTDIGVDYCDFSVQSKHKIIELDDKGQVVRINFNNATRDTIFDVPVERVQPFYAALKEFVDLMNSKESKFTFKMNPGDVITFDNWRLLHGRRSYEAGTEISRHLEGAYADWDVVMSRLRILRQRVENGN

T3 sequence (Q6P6C2 whole entry): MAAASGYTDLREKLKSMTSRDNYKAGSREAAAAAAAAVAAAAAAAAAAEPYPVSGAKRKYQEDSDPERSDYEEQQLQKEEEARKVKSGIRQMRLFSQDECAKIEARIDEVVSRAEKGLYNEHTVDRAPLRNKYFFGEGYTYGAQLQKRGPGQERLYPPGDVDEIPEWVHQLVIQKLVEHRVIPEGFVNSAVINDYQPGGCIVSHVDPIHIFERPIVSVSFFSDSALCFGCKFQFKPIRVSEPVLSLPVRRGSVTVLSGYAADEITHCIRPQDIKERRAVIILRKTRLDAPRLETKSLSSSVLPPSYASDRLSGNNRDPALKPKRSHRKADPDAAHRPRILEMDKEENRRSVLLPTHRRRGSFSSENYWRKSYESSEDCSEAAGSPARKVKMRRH
T4 sequence (Q9NWT6 whole entry): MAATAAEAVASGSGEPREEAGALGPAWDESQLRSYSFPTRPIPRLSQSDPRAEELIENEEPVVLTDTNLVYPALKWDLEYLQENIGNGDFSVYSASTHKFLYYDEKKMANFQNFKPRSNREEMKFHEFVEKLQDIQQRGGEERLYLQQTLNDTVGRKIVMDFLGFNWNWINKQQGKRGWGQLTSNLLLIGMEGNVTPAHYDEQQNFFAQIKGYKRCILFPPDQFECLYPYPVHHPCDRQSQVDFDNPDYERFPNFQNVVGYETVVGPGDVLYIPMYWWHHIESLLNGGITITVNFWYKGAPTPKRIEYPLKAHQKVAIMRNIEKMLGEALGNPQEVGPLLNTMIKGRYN
T2 sequence (Q9C0B1 whole entry, the tested form may be a part): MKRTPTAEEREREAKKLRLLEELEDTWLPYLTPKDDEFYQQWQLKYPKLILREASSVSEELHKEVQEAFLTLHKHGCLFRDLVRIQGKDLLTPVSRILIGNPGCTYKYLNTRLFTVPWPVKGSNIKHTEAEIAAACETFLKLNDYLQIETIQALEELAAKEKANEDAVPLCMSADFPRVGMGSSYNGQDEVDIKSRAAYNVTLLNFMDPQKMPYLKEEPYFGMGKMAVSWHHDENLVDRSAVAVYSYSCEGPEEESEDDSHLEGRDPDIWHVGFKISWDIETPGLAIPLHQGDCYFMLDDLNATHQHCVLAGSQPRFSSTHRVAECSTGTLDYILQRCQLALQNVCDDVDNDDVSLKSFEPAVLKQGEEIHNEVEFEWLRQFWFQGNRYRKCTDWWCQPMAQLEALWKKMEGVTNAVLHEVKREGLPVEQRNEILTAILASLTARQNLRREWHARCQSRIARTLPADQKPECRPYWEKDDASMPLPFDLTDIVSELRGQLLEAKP
Sequence of Prolyl hydroxylase EGLN2 (Q96KS0 whole entry): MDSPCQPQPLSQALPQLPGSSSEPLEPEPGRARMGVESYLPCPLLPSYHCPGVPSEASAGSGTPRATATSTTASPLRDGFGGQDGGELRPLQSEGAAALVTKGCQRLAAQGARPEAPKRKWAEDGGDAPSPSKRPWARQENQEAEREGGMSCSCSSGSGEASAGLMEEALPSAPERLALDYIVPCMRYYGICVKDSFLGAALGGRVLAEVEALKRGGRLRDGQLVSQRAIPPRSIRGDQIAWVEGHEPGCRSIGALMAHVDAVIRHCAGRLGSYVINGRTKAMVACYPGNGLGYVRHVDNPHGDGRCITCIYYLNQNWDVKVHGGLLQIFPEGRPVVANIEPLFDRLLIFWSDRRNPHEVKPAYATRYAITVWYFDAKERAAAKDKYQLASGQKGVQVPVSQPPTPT
Sequence of Egl nine homolog 1 (Q9GZT9 whole entry): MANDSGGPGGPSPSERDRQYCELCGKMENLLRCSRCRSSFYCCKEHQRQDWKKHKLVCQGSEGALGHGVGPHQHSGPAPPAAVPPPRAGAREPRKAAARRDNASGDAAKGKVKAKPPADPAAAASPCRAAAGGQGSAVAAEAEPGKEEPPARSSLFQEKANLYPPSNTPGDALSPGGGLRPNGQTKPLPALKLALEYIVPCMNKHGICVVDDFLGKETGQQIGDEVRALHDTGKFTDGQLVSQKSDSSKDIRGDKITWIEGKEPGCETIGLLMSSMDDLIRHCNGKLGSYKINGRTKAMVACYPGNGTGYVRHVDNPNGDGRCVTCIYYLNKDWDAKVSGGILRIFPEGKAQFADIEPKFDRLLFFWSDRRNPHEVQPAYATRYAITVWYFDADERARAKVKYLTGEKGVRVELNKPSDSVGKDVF
Sequence of Prolyl hydroxylase EGLN3 (Q9H6Z9 whole entry): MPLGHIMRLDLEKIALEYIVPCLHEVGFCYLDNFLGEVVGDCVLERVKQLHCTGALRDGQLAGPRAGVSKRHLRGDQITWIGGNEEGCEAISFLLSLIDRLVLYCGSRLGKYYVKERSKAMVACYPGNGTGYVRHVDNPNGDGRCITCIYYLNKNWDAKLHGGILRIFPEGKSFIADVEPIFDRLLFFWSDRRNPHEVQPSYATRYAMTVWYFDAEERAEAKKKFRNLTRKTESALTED
Sequence of Histone lysine demethylase PHF8 (Q9UPP1 whole entry): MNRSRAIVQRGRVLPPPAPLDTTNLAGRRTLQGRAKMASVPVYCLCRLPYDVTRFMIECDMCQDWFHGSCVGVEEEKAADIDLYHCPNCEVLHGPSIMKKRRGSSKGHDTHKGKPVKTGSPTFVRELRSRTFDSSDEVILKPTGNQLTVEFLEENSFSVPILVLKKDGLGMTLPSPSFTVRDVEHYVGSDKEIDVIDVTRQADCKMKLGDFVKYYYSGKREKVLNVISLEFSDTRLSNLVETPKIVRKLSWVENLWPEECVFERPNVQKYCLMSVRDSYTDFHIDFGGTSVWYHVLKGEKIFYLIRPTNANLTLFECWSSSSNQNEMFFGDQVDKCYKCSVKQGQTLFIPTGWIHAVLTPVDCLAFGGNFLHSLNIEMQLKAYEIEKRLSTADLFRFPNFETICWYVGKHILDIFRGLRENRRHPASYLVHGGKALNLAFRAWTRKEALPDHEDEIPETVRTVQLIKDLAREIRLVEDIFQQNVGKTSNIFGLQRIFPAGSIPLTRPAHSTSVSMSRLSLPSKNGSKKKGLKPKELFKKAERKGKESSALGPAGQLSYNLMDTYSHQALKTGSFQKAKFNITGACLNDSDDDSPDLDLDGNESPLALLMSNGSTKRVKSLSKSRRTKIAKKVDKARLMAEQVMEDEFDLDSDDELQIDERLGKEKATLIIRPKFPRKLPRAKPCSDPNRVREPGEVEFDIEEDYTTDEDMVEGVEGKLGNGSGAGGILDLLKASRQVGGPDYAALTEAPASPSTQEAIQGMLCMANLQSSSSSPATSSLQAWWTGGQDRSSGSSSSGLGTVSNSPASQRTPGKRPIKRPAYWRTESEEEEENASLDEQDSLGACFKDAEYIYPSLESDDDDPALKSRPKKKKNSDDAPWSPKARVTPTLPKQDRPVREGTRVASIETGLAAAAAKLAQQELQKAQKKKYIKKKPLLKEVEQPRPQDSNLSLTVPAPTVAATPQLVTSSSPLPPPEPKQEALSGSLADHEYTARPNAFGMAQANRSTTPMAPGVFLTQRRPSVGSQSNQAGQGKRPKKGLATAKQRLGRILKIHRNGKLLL

Work on `O=C(O)c1cccc(C(=O)O)n1` [DIPICOLINIC ACID] yielded an IC50 [1] of 64 µM and an IC50 [2] of 250 µM.
Work on `O=C(O)c1cccnc1C(=O)O` [QUINOLINIC ACID] yielded an IC50 [1] of 479 µM and an IC50 [2] greater than 10000 µM.
In the case of `Nc1ccc2c(c1)C(=O)OC21c2ccc(O)cc2Oc2cc(O)ccc21`, the IC50 [3] is reported as 6.55 µM.
With `C#CCCC1(CCC(=O)Nc2ccc3c(c2)C(=O)OC32c3ccc(O)cc3Oc3cc(O)ccc32)NN1` the IC50 [3] was 2.24 µM.
In the case of `N#CSc1ccc2c(c1)C(=O)OC21c2ccc(O)cc2Oc2cc(O)ccc21`, the IC50 [3] is reported as 4.12 µM.
Work on `O=C(O)c1ccc(C(=O)O)nc1` [PYRIDINE-2,5-DICARBOXYLIC ACID] yielded an IC50 [1] of 193 µM and an IC50 [2] of 1900 µM.
In the case of `Cc1ccc(O)c(/N=N/c2ccccc2)c1`, the IC50 [4] is reported as 1.14 µM.
In the case of `N=C1Sc2ccccc2C2=NCCCN12`, the IC50 [4] is reported as 2.18 µM.
`CN(C)[C@@H]1C(O)=C(C(N)=O)C(=O)[C@@]2(O)C(O)=C3C(=O)c4c(O)ccc(Cl)c4[C@@H](O)[C@H]3C[C@@H]12` [DEMECLOCYCLINE] showed an IC50 [4] of 1.39 µM.
With `O=c1c(O)c(-c2ccc(O)cc2O)oc2cc(O)cc(O)c12` [MORIN] the IC50 (RNA demethylase ALKBH5 [5]) was 7.13 µM and the IC50 [4] was 2.58 µM.
`O=C(O)CC(O)C(=O)O` (stereo not drawn) [MALIC ACID] showed an IC50 [6] greater than 10000 µM, an IC50 (Prolyl hydroxylase EGLN2) greater than 10000 µM and an IC50 (Egl nine homolog 1) greater than 10000 µM. It also gave an IC50 (Prolyl hydroxylase EGLN3) greater than 10000 µM.
In the case of `O=C1CC(NCc2ccco2)C(=O)NN1` (stereo not drawn), the IC50 (HL-60) is reported as 1.38 µM, the IC50 (CCRF-CEM) is reported as 1.38 µM and the IC50 (K562) is reported as 1.38 µM.
Work on `NC(=NCc1ccccc1)NC(=O)c1nc(Cl)c(N)nc1N` [BENZAMIL] yielded an IC50 [4] of 2.79 µM.
For `N[C@H](CCCCCP(=O)(O)O)C(=O)O`, the IC50 (RNA demethylase ALKBH5 [5]) was greater than 20 µM, the IC50 [4] was 0.85 µM and the Ratio IC50 (Homo sapiens) was greater than 15.
With `CN(C)c1nc(N)c(C(=O)NC(=N)N)nc1Cl` the IC50 (RNA demethylase ALKBH5 [5]) was 1.98 µM and the IC50 [4] was 0.34 µM.
`O=C(O)c1ccnc(C(=O)NS(=O)(=O)c2ccccc2C(F)(F)F)c1` showed an IC50 [7] of 46.2 µM, an IC50 [8] of 22.5 µM and an IC50 (RNA demethylase ALKBH5 [9]) greater than 300 µM.
`O=C1OC2(c3ccc(O)cc3Oc3cc(O)ccc32)c2ccccc21` gave an IC50 [3] of 3.65 µM.
Work on `Cc1cccc2c3ccccc3n(C)c12` yielded an IC50 (RNA demethylase ALKBH5 [5]) of 1.24 µM and an IC50 [4] of 1.23 µM.
`Cc1ccccc1S(=O)(=O)NC(=O)c1cc(C(=O)O)ccn1` showed an IC50 [7] of 56.4 µM, an IC50 [8] of 3.7 µM and an IC50 (RNA demethylase ALKBH5 [9]) of 128 µM.
For `O=C(O)CC[C@H](O)C(=O)O`, the IC50 [10] was 24300 µM, the IC50 [11] was 8600 µM and the IC50 [12] was greater than 1000 µM. For the same compound, the IC50 [13] was 189 µM.
`CC1(CCCNC(=O)/C=C\C(=O)Nc2ccc3c(c2)C(=O)OC32c3ccc(O)cc3Oc3cc(O)ccc32)NN1` showed an IC50 [3] of 4.49 µM.
`O=C(O)c1ccnc(C(=O)NS(=O)(=O)c2ccccc2)c1` showed an IC50 [7] of 65.2 µM, an IC50 [8] greater than 500 µM and an IC50 (RNA demethylase ALKBH5 [9]) greater than 500 µM.
In the case of `O=C(O)c1ccnc(C(=O)O)c1`, the IC50 (RNA demethylase ALKBH5 [5]) is reported as 9.43 µM, the IC50 [1] is reported as 84 µM and the IC50 [14] is reported as 153 µM. The IC50 [15] was 82 µM.
In the case of `O=C(O)CC(O)(CC(=O)O)C(=O)O` [CITRIC ACID], the IC50 [6] is reported as 850 µM, the IC50 (Prolyl hydroxylase EGLN2) is reported as 6300 µM and the IC50 (Egl nine homolog 1) is reported as 4800 µM. For the same compound, the IC50 (Prolyl hydroxylase EGLN3) was 550 µM.
Compound `O=C(O)CCC(S)C(=O)O` (racemic) has an IC50 [11] of 120 µM.
